{"source": "the supplement of paper PMC10307832", "assay_in_all_cases": "relative viability (nuclei count vs DMSO), 5 days (fraction); higher = more cells survive", "key": {"Crizotinib + AZD7762": {"compound": "C[C@@H](Oc1cc(-c2cnn(C3CCNCC3)c2)cnc1N)c1c(Cl)ccc(F)c1Cl [Crizotinib] + NC(=O)Nc1cc(-c2cccc(F)c2)sc1C(=O)N[C@H]1CCCNC1 [AZD7762] (partner 0.2 µM)", "summary_of_the_method": "(§1)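 Relative viability was taken as the ratio of nuclei in treated wells to nuclei in vehicle wells. Lung cancer cell lines in 1536-well plates received compounds by pin tool one day after seeding, either one drug alone or a fixed anchor-drug dose plus five library-drug doses (not always all listed) in √10 steps. Nuclei were counted on 4× images after 5 days of treatment, and values are medians of duplicate plates.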"}, "Crizotinib + Dasatinib": {"compound": "C[C@@H](Oc1cc(-c2cnn(C3CCNCC3)c2)cnc1N)c1c(Cl)ccc(F)c1Cl [Crizotinib] + Cc1nc(Nc2ncc(C(=O)Nc3c(C)cccc3Cl)s2)cc(N2CCN(CCO)CC2)n1 [Dasatinib] (partner 0.075 µM)", "summary_of_the_method": "as §1"}, "Carfilzomib + Alpelisib": {"compound": "CC(C)C[C@H](NC(=O)[C@H](CCc1ccccc1)NC(=O)CN1CCOCC1)C(=O)N[C@@H](Cc1ccccc1)C(=O)N[C@@H](CC(C)C)C(=O)[C@@]1(C)CO1 [Carfilzomib] + Cc1nc(NC(=O)N2CCC[C@H]2C(N)=O)sc1-c1ccnc(C(C)(C)C(F)(F)F)c1 [Alpelisib] (partner 2 µM)", "summary_of_the_method": "as §1"}, "Carfilzomib + Decitabine": {"compound": "CC(C)C[C@H](NC(=O)[C@H](CCc1ccccc1)NC(=O)CN1CCOCC1)C(=O)N[C@@H](Cc1ccccc1)C(=O)N[C@@H](CC(C)C)C(=O)[C@@]1(C)CO1 [Carfilzomib] + Nc1ncn([C@H]2C[C@H](O)[C@@H](CO)O2)c(=O)n1 [Decitabine] (partner 2 µM)", "summary_of_the_method": "as §1"}, "Crizotinib + Trametinib": {"compound": "C[C@@H](Oc1cc(-c2cnn(C3CCNCC3)c2)cnc1N)c1c(Cl)ccc(F)c1Cl [Crizotinib] + CC(=O)Nc1cccc(-n2c(=O)n(C3CC3)c(=O)c3c(Nc4ccc(I)cc4F)n(C)c(=O)c(C)c32)c1 [Trametinib] (partner 0.02 µM)", "summary_of_the_method": "as §1"}}, "data": [{"cell line": "NCI-H1793", "values": [{"measurement": "relative viability", "setting": "Crizotinib + AZD7762; first compound 0.03162 µM", "value": 0.435}, {"measurement": "relative viability", "setting": "Crizotinib + AZD7762; first compound 0.1 µM", "value": 0.41}, {"measurement": "relative viability", "setting": "Crizotinib + AZD7762; first compound 1 µM", "value": 0.621}, {"measurement": "relative viability", "setting": "Crizotinib + Dasatinib; first compound 0.03162 µM", "value": 0.401}, {"measurement": "relative viability", "setting": "Crizotinib + Dasatinib; first compound 0.1 µM", "value": 0.382}, {"measurement": "relative viability", "setting": "Crizotinib + Dasatinib; first compound 1 µM", "value": 0.369}, {"measurement": "relative viability", "setting": "Carfilzomib + Alpelisib; first compound 0.003162 µM", "value": 0.767}, {"measurement": "relative viability", "setting": "Carfilzomib + Alpelisib; first compound 0.01 µM", "value": 0.804}, {"measurement": "relative viability", "setting": "Carfilzomib + Alpelisib; first compound 0.03162 µM", "value": 0.68}, {"measurement": "relative viability", "setting": "Carfilzomib + Alpelisib; first compound 0.1 µM", "value": 0.356}, {"measurement": "relative viability", "setting": "Carfilzomib + Decitabine; first compound 0.001 µM", "value": 0.494}, {"measurement": "relative viability", "setting": "Carfilzomib + Decitabine; first compound 0.003162 µM", "value": 0.61}, {"measurement": "relative viability", "setting": "Carfilzomib + Decitabine; first compound 0.01 µM", "value": 0.531}, {"measurement": "relative viability", "setting": "Carfilzomib + Decitabine; first compound 0.03162 µM", "value": 0.562}, {"measurement": "relative viability", "setting": "Carfilzomib + Decitabine; first compound 0.1 µM", "value": 0.194}, {"measurement": "relative viability", "setting": "Crizotinib + Trametinib; first compound 0.03162 µM", "value": 0.467}, {"measurement": "relative viability", "setting": "Crizotinib + Trametinib; first compound 0.1 µM", "value": 0.399}, {"measurement": "relative viability", "setting": "Crizotinib + Trametinib; first compound 1 µM", "value": 0.461}]}]}
